Laboratory results from patent publication US9597283B2, “Injectable depot formulation comprising optically active tolvaptan and process of producing the same” (OTSUKA PHARMACEUTICAL CO., LTD., priority 2012, dated 2017).

Assays:
[1] = in vitro metabolic stability test, rat liver homogenate (S9 fraction); type: in vitro ADME; conditions: 100 nM, sampling 5, 10, 30, 60 minutes, LC-MS/MS, FIG. 1 (2)
Description: (§1) Using human and rat liver homogenates (S9 fractions), the in vitro metabolic stability test of tolvaptan (racemic compound), R-tolvaptan, and S-tolvaptan was performed. The concentration of each evaluated compound was set to 100 nM, and the concentration sampling of each compound in a reaction mixture was conducted over time, i.e., 5, 10, 30, and 60 minutes after addition, and measured by LC-MS/MS (FIGS. 1 (1) and (2)).

[2] = dissolution test of tolvaptan powders; type: physicochemical; conditions: Test Example 3; crystal powders; 0.1 g in 500 mL polysorbate 80 / phosphate solution pH 7.4; sampling up to 48 hours; FIG. 5
Description: The dissolution test of each of the R- and S-tolvaptan SD powders of Examples 1 and 2, tolvaptan (racemic compound) SD powders of Comparative Examples 1 to 6, and tolvaptan (racemic compound) crystal powder of Comparative Example 7 was performed (FIGS. 2 to 4). In the dissolution test method, the R- and S-tolvaptan SD powders, tolvaptan (racemic compound) SD powders, and tolvaptan (racemic compound) crystal powder were weighed out in individual amounts of 0.1 g, and added to a solution (500 mL) for dissolution test shown in Table 2. None of the tolvaptans in an amount weighed above were dissolved in the solvent for dissolution test, and were fully suspended. Sequential sampling was performed 0.083, 0.167, 0.5, 1, 2, 4, 6, 8, 12, 24, 48, and 144 hours after addition.
The dissolution test of each of the R- and S-tolvaptan crystal powders was performed (FIG. 5). As a control, the result of Comparative Example 7 in Test Example 2 above was plotted. In the dissolution test method, an R-tolvaptan crystal powder (mean particle size: 34.0 μm) or an S-tolvaptan crystal powder (mean particle size: 35.8 μm) was weighed out in an amount of 0.1 g, and added to the solution for the dissolution test (500 mL) shown in Table 2 above. None of the tolvaptans in an amount weighed above were dissolved in the solution for dissolution test, and were fully suspended. […]

[3] = in vitro metabolic stability test, human liver homogenate (S9 fraction); type: in vitro ADME; conditions: 100 nM, sampling 5, 10, 30, 60 minutes, LC-MS/MS, FIG. 1 (1)
Description: as §1

Compound: Cc1ccccc1C(=O)Nc1ccc(C(=O)N2CCC[C@@H](O)c3cc(Cl)ccc32)c(C)c1 [R-tolvaptan, R-(+)-7-chloro-5-hydroxy-1-[2-methyl-4-(2-methylbenzoylamino)benzoyl]-2,3,4,5-tetrahydro-1H-benzazepine]
- in vitro metabolic stability (disappearance over time) [1]: disappeared slowly compared to tolvaptan (racemic compound) or S-tolvaptan, and had high metabolic stability
- dissolution amount [2]: slightly higher than that of the tolvaptan (racemic compound) crystal of Comparative Example 7, and remained fairly constant

Compound: Cc1ccccc1C(=O)Nc1ccc(C(=O)N2CCC[C@H](O)c3cc(Cl)ccc32)c(C)c1 [S-tolvaptan, S-(−)-7-chloro-5-hydroxy-1-[2-methyl-4-(2-methylbenzoylamino)benzoyl]-2,3,4,5-tetrahydro-1H-benzazepine]
- dissolution amount [2]: slightly higher than that of the tolvaptan (racemic compound) crystal of Comparative Example 7, and remained fairly constant
- in vitro metabolic stability (disappearance over time) [3]: disappeared slowly compared to tolvaptan (racemic compound) or R-tolvaptan, and had high metabolic stability
